Peptide text beside a SMILES is read from it. * marks the point of attachment. Cbz = O=C(OCc1ccccc1)*; CH2F = FC*
Test system: proIL-1β
Test: in vitro pro-IL1β activation in THP.1 cell lysates incubated at 30° C., Western blotting
Assay type: biochemical, human
Settings: lysates of LPS-prestimulated THP.1 cells at 30° C.
Protocol: However, THP1 cells express caspase-5 even without LPS activation. FIG. 11c represents the results of experiments which emerge when cell lysates from THP.1 cells which have been prestimulated with LPS were incubated at 30° C. for the periods shown at the top in FIG. 11c. This is because caspase-1 activation is to be observed spontaneously when cytoplasmic cell extracts are heated to 30° C. The activation of caspase-1, caspase-5, caspase-9 and pro-IL1β, followed by Western blotting in the presence or absence of caspase inhibitors zVADfmk (50 μM), YVADfmk (5 μM) and proteasome inhibitor LLnL (50 μM) was measured as a function of time. Cytochrome C (1 ng) was added to activate Apaf-1 and caspase-9. The monoclonal antibodies employed to detect caspase-5 and caspase-9 each recognize the p20 subunit. The four sections of the picture in FIG. 11c depict the respective bands obtained by labeling with anti-caspase-1 antibody, anti-caspase-5 antibody, anti-caspase-9 antibody and anti-IL1β antibody. […]
Addition of the two caspase-1 inhibitors zVADfmk and YVADfmk blocked proIL-1β activation. […] Activation of pro-IL1β, caspase-1 and caspase-5 was measured both in the cell extracts (xt) and in the supernatants (SN). […] The cleavage of […] was detected by an antibody (anti-IL1β*) which specifically recognizes the cleaved form of pro-IL1β, i.e. IL1β*. […]

## COC(=O)C[C@H](NC(=O)[C@H](C)NC(=O)[C@@H](NC(=O)OCc1ccccc1)C(C)C)C(=O)CF [zVADfmk] (Cbz-Val-Ala-Asp(OMe)-CH2F)
zVADfmk 50 μM
  proIL-1β activation: blocked

## YVADfmk
YVADfmk 5 μM
  proIL-1β activation: blocked

Reference: patent publication US20040053292A1, “Proteins and dna sequences underlying these proteins used for treating inflammations” (priority 2000, published 2004)
